# Measured values from patent US20050054027A1 (priority 2003, published 2005).
# Counter-ions that a name gives are not always drawn.
# System: TMPRSS6
# Test: Inhibition of TMPRSS6 protease activity (cleavage of fluorogenic substrate Ac-RKFK-acc)
# Assay type: biochemical, human
# Details: 2 nM enzyme, 15 min preincubation at room temperature, inhibition constant only in FIG. 4
# Protocol: The putative catalytic domain of TMPRSS6 minus the pro region was cloned into pFastBac1 (Invitrogen) from a human cDNA library. […] The vector also contains a C-terminal 6His tag to facilitate purification and an N-terminal honeybee melittin secretion signal. Recombinant bacmid was produced using Bac-to-Bac transposition technology (Invitrogen). Sf9 cells (Invitrogen) were then transfected with recombinant bacmid to produce rAcNPV.
# Protease activity of the purified TMPRSS6 was assessed by monitoring the accumulation of the fluorophore 7-amino-4-carbamoylmethylcoumarin (acc) produced by the cleavage of the tetrapeptide substrate Ac-RKFK-acc in assay buffer (50 mM Tris-Cl pH 7.4, 200 mM NaCl, 2 mM CaCl2, 0.01% Tween 20) at 37 C. Data was collected with a Gemini EM plate reader (Molecular Devices) at λex=380 nm and λem=450 nm.
# A 1 mM DMSO solution of camostat mesylate was diluted serially 1:3 in DMSO to a final concentration of 5.6 nM. The TMPRSS6 enzyme was diluted in assay buffer to 2 nM. 1 μl of each camostat dilution was added to 98 μl of the enzyme mixture in a 96 well assay plate (Dynex). The plate was incubated for 15 min at room temperature to allow equilibrium to take place between the enzyme and inhibitor. Afterward, 1 μl of a 1 mM solution of a substrate, Ac-RKFK-acc, was added to each well. […] The inhibition constant was calculated using Prism (GraphPad).
smiles,measurement,value
CN(C)C(=O)COC(=O)Cc1ccc(OC(=O)c2ccc(NC(=N)N)cc2)cc1 [camostat mesylate],inhibition of TMPRSS6 protease activity,inhibited
